Measurements taken from paper PMC11129182, “Development of Inhibitors, Probes, and PROTAC Provides a Complete Toolbox to Study PARK7 in the Living Cell” (Journal of Medicinal Chemistry, 2024).

Biological target: T1, PARK7 (Homo sapiens, UniProt Q99497)
T1 sequence (Q99497 1-189): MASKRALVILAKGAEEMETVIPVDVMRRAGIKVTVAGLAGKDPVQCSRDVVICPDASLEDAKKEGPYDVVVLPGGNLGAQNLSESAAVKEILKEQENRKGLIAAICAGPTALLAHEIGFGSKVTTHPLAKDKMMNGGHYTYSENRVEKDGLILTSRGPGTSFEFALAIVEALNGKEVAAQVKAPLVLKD
Experiment: High-throughput screen of the crude compound library, PARK7 fluorescence polarization (FP) assay with FP reagent JYQ-107
Type: biochemical
Details: 1.25 µM, crude compound library, FP reagent JYQ-107; read-out: HTS FP assay %Inhibition (1.25 µM)

inhibition at 1.25 µM [%] | Structure (SMILES)
85.3 | N#CN1CC[C@@H](C(=O)Nc2nc3c(s2)CN(C(=O)c2ncn(-c4ccccc4)n2)CC3)C1 [compound 355]
76.2 | N#CN1CC[C@@H](C(=O)Nc2nc3c(s2)CN(C(=O)C2CCCN(c4ccc(Cl)nn4)C2)CC3)C1 (some centres unmarked) [compound 356]
69.7 | N#CN1CC[C@@H](C(=O)Nc2nc3c(s2)CN(C(=O)c2cn[nH]c2C2CC2)CC3)C1 [compound 357]
77.6 | N#CN1CC[C@@H](C(=O)Nc2nc3c(s2)CN(C(=O)C2CCCN(c4ncccc4C(F)(F)F)C2)CC3)C1 (some centres unmarked) [compound 358]
67.9 | N#CN1CC[C@@H](C(=O)Nc2nc3c(s2)CN(C(=O)c2nn(-c4ccccc4)c(=O)[nH]c2=O)CC3)C1 [compound 359]
72.2 | Cn1cc(-c2nc(C(=O)N3CCc4nc(NC(=O)[C@@H]5CCN(C#N)C5)sc4C3)cs2)cn1 [compound 360]
82.9 | N#CN1CC[C@@H](C(=O)Nc2nc3c(s2)CN(C(=O)c2ncsc2Cc2ccccc2)CC3)C1 [compound 361]
71.7 | N#CN1CC[C@@H](C(=O)Nc2nc3c(s2)CN(C(=O)C2CCN(C(=O)N4CCOCC4)CC2)CC3)C1 [compound 362]
78.9 | Cc1n[nH]c(C)c1Cc1ccc(C(=O)N2CCc3nc(NC(=O)[C@@H]4CCN(C#N)C4)sc3C2)o1 [compound 363]
73 | CC1=NN(c2cccc(Br)c2)C(=O)C1CC(=O)N1CCc2nc(NC(=O)[C@@H]3CCN(C#N)C3)sc2C1 (some centres unmarked) [compound 364]
78.3 | CCn1ccc(-c2cc(C(=O)N3CCc4nc(NC(=O)[C@@H]5CCN(C#N)C5)sc4C3)no2)n1 [compound 365]
79.5 | N#CN1CC[C@@H](C(=O)Nc2nc3c(s2)CN(C(=O)c2ccc(Cn4ccccc4=O)o2)CC3)C1 [compound 366]
65 | CC(C)n1nccc1[C@@H]1OCC[C@H]1C(=O)N1CCc2nc(NC(=O)[C@@H]3CCN(C#N)C3)sc2C1 [compound 367]
69.2 | N#CN1CC[C@@H](C(=O)Nc2nc3c(s2)CN(C(=O)c2cnc(-c4cccnc4)s2)CC3)C1 [compound 368]
72.4 | N#CN1CC[C@@H](C(=O)Nc2nc3c(s2)CN(C(=O)C2CC(=O)N(OCc4ccccc4)C2)CC3)C1 (some centres unmarked) [compound 370]
74.8 | N#CN1CC[C@@H](C(=O)Nc2nc3c(s2)CN(C(=O)CC2CCN(c4ccc(Cl)nn4)CC2)CC3)C1 [compound 371]
81.6 | N#CN1CC[C@@H](C(=O)Nc2nc3c(s2)CN(C(=O)c2cnn(CC4CCC4)c2)CC3)C1 [compound 372]
81.4 | N#CN1CC[C@@H](C(=O)Nc2nc3c(s2)CN(C(=O)Cc2csc(C4CC4)n2)CC3)C1 [compound 373]
84 | N#CN1CC[C@@H](C(=O)Nc2nc3c(s2)CN(C(=O)c2cc(C4CCC4)on2)CC3)C1 [compound 374]
68.5 | N#CN1CC[C@@H](C(=O)Nc2nc3c(s2)CN(C(=O)C(c2ccccc2)n2cccc2)CC3)C1 (some centres unmarked) [compound 375]
70.8 | N#CN1CC[C@@H](C(=O)Nc2nc3c(s2)CN(C(=O)c2nc(N4CCOCC4)ncc2Cl)CC3)C1 [compound 376]
76.2 | N#CN1CC[C@@H](C(=O)Nc2nc3c(s2)CN(C(=O)C2CCCCN2S(=O)(=O)c2ccc(Br)s2)CC3)C1 (some centres unmarked) [compound 377]
87 | CC(C)c1cc(C(=O)N2CCc3nc(NC(=O)[C@@H]4CCN(C#N)C4)sc3C2)n(-c2ccccc2)n1 [compound 378]
75.2 | N#CN1CC[C@@H](C(=O)Nc2nc3c(s2)CN(C(=O)c2ccc(-c4ncon4)cc2)CC3)C1 [compound 379]
80.3 | N#CN1CC[C@@H](C(=O)Nc2nc3c(s2)CN(C(=O)C(CCc2ccccc2)c2ccccc2)CC3)C1 (some centres unmarked) [compound 380]
75.9 | COC1CC(C(=O)N2CCc3nc(NC(=O)[C@@H]4CCN(C#N)C4)sc3C2)N(C(=O)OCc2ccccc2)C1 (some centres unmarked) [compound 382]
